Assay results as given in US9085608B2, “Treatment of biofilms” (LYTIX BIOPHARMA AS, priority 2008, dated 2015).
Converted amounts (≈) assume the structure as drawn. Read-outs that look alike come from different tables or passages of the source. Residues, ends and D or L forms follow the SMILES beside them. *: point of attachment. NHPhenethyl = c1ccc(CCN*)cc1

What was measured:
[1] = tested on: six staphylococcal strains (2 S. epidermidis, 2 S. haemolyticus and 2 S. aureus); test: Susceptibility testing under planktonic growth condition, EUCAST breakpoints; assay type: cell-based; details: EUCAST criteria
Experimental: The six staphylococcal strains (2 S. epidermidis, 2 S. haemolyticus and 2 S. aureus) used in this study were selected based on their previously known biofilm forming capacity (Table 1).
(§1) Bacteria were grown overnight at 37° C. in cation adjusted Mueller-Hinton II Broth (MHIIB).
We determined the MICs of oxacillin, gentamicin, tetracycline, vancomycin and linezolid using E-test (AB Biodisk, Solna, Sweden) and MICs of rifampicin using broth microdilution assay. Breakpoints were interpreted according to EUCAST criteria. We selected 3 different SAMPs (Compounds A, B and C; Lytix Biopharma, Tromsø, Norway—see FIG. 1) based on previously known antimicrobial activities, and determined their exact MICs with broth microdilution assay. All 3 SAMPs are tripeptides with two arginine residues providing their cationic moieties (FIG. 1). The lipophilic bulk is provided by a modified tryptophane derivate. The difference between the compounds is the size of the C-terminal modification; Compound A has the smallest and Compound B has the largest C-terminal modification (FIG. 1). The molecular weights of the SAMPs are in the range of 700-800 Dalton.

[2] = tested on: Staphylococcus epidermidis TUH 08-16; test: microbe, parasite or virus in culture
Experimental: as §1
(§2) We determined the MICs of oxacillin, gentamicin, tetracycline, vancomycin and linezolid using E-test (AB Biodisk, Solna, Sweden) and MICs of rifampicin using broth microdilution assay. Breakpoints were interpreted according to EUCAST criteria. […] All 3 SAMPs are tripeptides with two arginine residues providing their cationic moieties (FIG. 1). The lipophilic bulk is provided by a modified tryptophane derivate. […] The molecular weights of the SAMPs are in the range of 700-800 Dalton.

[3] = tested on: Staphylococcus aureus PIA90; test: microbe, parasite or virus in culture
Experimental: as §1, §2

[4] = tested on: Staphylococcus epidermidis RP62A ATCC 35984; test: microbe, parasite or virus in culture
Experimental: as §1, §2

[5] = tested on: Staphylococcus haemolyticus TUH 51-03; test: microbe, parasite or virus in culture
Experimental: as §1, §2

[6] = tested on: Staphylococcus haemolyticus TUH 51-07; test: microbe, parasite or virus in culture
Experimental: as §1, §2

[7] = tested on: Staphylococcus aureus PIA 9; test: microbe, parasite or virus in culture
Experimental: as §1, §2

42-77 S. epidermidis = assay type: cell-based; details: planctonic
Description: (§3) Minimum Inhibitory Concentration (MIC) on Planctonic Bacteria

PIA 9 S. aureus = assay type: cell-based; details: planctonic
Description: as §3

PIA 90 S. aureus = assay type: cell-based; details: planctonic
Description: as §3

51-07 S. haemolyticus = assay type: cell-based; details: planctonic
Description: as §3

8-16 S. epidermidis = assay type: cell-based; details: planctonic
Description: as §3

51-03 S. haemolyticus = assay type: cell-based; details: planctonic
Description: as §3

[8] = tested on: 51-07 S. haemolyticus biofilm; test: MBIC, biofilm survival rate by Alamar blue, Example 3; assay type: cell-based; details: 24 h
Experimental: (§4) Biofilm formation was induced in 96-well flat bottom microtitre plates (Nunclon Surface, NUNC). First, overnight cultures were diluted 1:100 in MHIIB (S. epidermidis and S. haemolyticus) or tryptic soy broth (TSB) with 5% glucose and 5% NaCl (S. aureus). […] of this bacterial suspension (10^7 cfu/ml) was added to each well and incubated for 24 h at 37° C. After 24 h the wells were carefully washed twice with phosphate-buffered saline (PBS) to remove planktonic bacteria. The washing procedure was carefully evaluated by measuring metabolic activity of the PBS with the Alamar blue method, described in detail below.
(§5) The washed biofilms were subjected to treatment with the Compounds at different concentrations.
(§6) Trifluoroacetate salts of the compounds were dissolved in sterile water and diluted to 5 mg/L, 50 mg/L and 500 mg/L in MHIIB. […] of the Compounds, in different concentrations, were added to each well and incubated for 24 h at 37° C. Positive controls were untreated biofilms only added 200 MHIIB. Negative controls were only 200 μl MHIIB, with no bacteria added.
(§7) The metabolic activity of the biofilm was quantified with a slightly modified method previously described by Pettit et al. Antimicrob. Agents Chemother. 2005; 49: 2612-7. Briefly, after the 24 h incubation with antimicrobial agents the wells were again washed twice with PBS and then added […] MHIIB with 5% Alamar blue (AB; Biosource, Camarillo, Calif., USA). AB is a redox indicator which both fluoresces and changes colour in response to chemical reduction. The extent of reduction is a reflection of bacterial cell viability. After 1 h incubation at 37° C., absorbance was recorded at 570 and 600 nm using Versamax tuneable microplate reader (Molecular Devices, Sunnyvale, Calif., USA). All assays were performed 3 times with 8 parallels. The highest and lowest value of each run was excluded from the analyses, and the remaining 18 values were averaged.

[9] = tested on: 51-03 S. haemolyticus biofilm; test: as above; assay type: cell-based; details: 24 h
Experimental: as §4, §5, §6, §7

PIA 9 S. aureus biofilm = test: as above; assay type: cell-based; details: 24 h
Experimental: as §4, §5, §6, §7

PIA 90 S. aureus biofilm = test: as above; assay type: cell-based; details: 24 h
Experimental: as §4, §5, §6, §7

[10] = tested on: 42-77 S. epidermidis biofilm; test: as above; assay type: cell-based; details: 24 h
Experimental: as §4, §5, §6, §7

[11] = tested on: 8-16 S. epidermidis biofilm; test: as above; assay type: cell-based; details: 24 h
Experimental: as §4, §5, §6, §7

[12] = tested on: 24 h old biofilm of 6 different staphylococcal strains; test: Biofilm metabolic activity, Alamar blue reduction; assay type: cell-based, S. epidermidis, S. haemolyticus, S. aureus; details: 50 mg/L, 24 h treatment; all biofilms except S. aureus PIA 9
Experimental: Biofilm formation was induced in 96-well flat bottom microtitre plates (Nunclon Surface, NUNC, Roskilde, Denmark). First, overnight cultures were diluted 1:100 in MHIIB (S. epidermidis and S. haemolyticus) or tryptic soy broth (TSB) with 5% glucose and 5% NaCl (S. aureus). Two hundred of this bacterial suspension (10^7 cfu/ml) was added to each well and incubated for 24 h at 37° C. After 24 h the wells were carefully washed twice with phosphate-buffered saline (PBS) to remove planktonic bacteria. The washing procedure was evaluated by measuring metabolic activity of the PBS with the Alamar blue method, described in detail below.
The washed biofilms were subjected to treatment with antibiotics or SAMPs at different concentrations. Stock solutions of the tetracycline (Sigma Aldrich), vancomycin (Alpharma) and linezolid (Pfizer) were diluted in MHIIB to 5 mg/L, 50 mg/L and 500 mg/L, and rifampicin (Sigma Aldrich) was diluted in MHIIB to 0.01 mg/L, 0.1 mg/L and 1 mg/L. Trifluoroacetate salts of the SAMPs were dissolved in sterile water and diluted to 5 mg/L, 50 mg/L and 500 mg/L in MHIIB. 200 μl of antibiotics or SAMPs, in different concentrations, were added to each well and incubated for 24 h at 37° C. Positive controls were untreated biofilms only added 200 μl MHIIB. Negative controls were only 200 μl MHIIB, with no bacteria added.
We quantified the metabolic activity of biofilm with a slightly modified method previously described by Pettit et al. in Antimicrob. […] Briefly, the wells were washed twice with PBS. We then added 250 μl MHIIB with 5% Alamar blue (AB; Invitrogen, Carlsbad, Calif., USA) to each well. AB is a redox indicator which both fluoresces and changes colour in response to chemical reduction. The extent of reduction is a reflection of bacterial cell viability. After 1 h incubation at 37° C., absorbance was recorded at 570 and 600 nm using Versamax tuneable microplate reader (Molecular Devices, Sunnyvale, Calif., USA). […] The highest and lowest value of each run was excluded from the analyses, and the remaining 18 values were averaged.
The percent reduction of AB was calculated according to the manufacturer's formula (Invitrogen, Carlsbad, USA). We calculated mean and standard deviations (SD) of all repeated measurements.
We defined two levels of antimicrobial suppression of metabolic activity.

[13] = the four other staphylococcal strains
[14] = planktonic, SE RP62A ATCC 35984

Cc1onc(-c2ccccc2)c1C(=O)N[C@@H]1C(=O)N2[C@@H]1SC(C)(C)[C@@H]2C(=O)O [OXA, oxacillin]
susceptibility under planktonic growth [1, 13]: resistant
susceptibility under planktonic growth ([1]; the two S. aureus strains): susceptible
MIC ([2]; planktonic, SE TUH 08-16): 16 mg/L (≈ 39.9 µM)
MIC ([3]; planktonic, SA PIA90): 1 mg/L (≈ 2.49 µM)
MIC [4, 14]: 8 mg/L (≈ 19.9 µM)
MIC ([5]; planktonic, SH TUH 51-03): >256 mg/L
MIC ([6]; planktonic, SH TUH 51-07): >256 mg/L
MIC ([7]; planktonic, SA PIA 9): 1 mg/L (≈ 2.49 µM)

gentamicin
susceptibility under planktonic growth [1, 13]: resistant
susceptibility under planktonic growth ([1]; the two S. aureus strains): susceptible
MIC ([2]; planktonic, SE TUH 08-16): 256 mg/L
MIC ([3]; planktonic, SA PIA90): 0.5 mg/L
MIC [4, 14]: 8 mg/L
MIC ([5]; planktonic, SH TUH 51-03): 64 mg/L
MIC ([6]; planktonic, SH TUH 51-07): 64 mg/L
MIC ([7]; planktonic, SA PIA 9): 1 mg/L

N=C(N)NCCC[C@H](NC(=O)[C@H](Cc1c[nH]c2ccccc12)NC(=O)[C@H](Cc1c[nH]c2ccccc12)NC(=O)[C@@H](N)CCCNC(=N)N)C(=O)NCCc1ccccc1 [ME 171 B, R-W-W-R-NH-CH2CH2Ph] (H-RWWR-NHPhenethyl)
MIC (42-77 S. epidermidis): 64 mg/L (≈ 79.4 µM)
MIC (PIA 9 S. aureus): 128 mg/L (≈ 159 µM)
MIC (PIA 90 S. aureus): 128 mg/L (≈ 159 µM)
MIC (51-07 S. haemolyticus): 32 mg/L (≈ 39.7 µM)
MIC (8-16 S. epidermidis): 64 mg/L (≈ 79.4 µM)
MIC (51-03 S. haemolyticus): 32 mg/L (≈ 39.7 µM)
MBIC measured as survival rate ([8]; 5 μg/ml): 100%
MBIC measured as survival rate ([8]; 50 μg/ml): 60%
MBIC measured as survival rate ([8]; 500 μg/ml): 12%
MBIC measured as survival rate ([9]; 5 μg/ml): 100%
MBIC measured as survival rate ([9]; 50 μg/ml): 8%
MBIC measured as survival rate ([9]; 500 μg/ml): 9%
MBIC measured as survival rate (PIA 9 S. aureus biofilm; 5 μg/ml): 100%
MBIC measured as survival rate (PIA 9 S. aureus biofilm; 50 μg/ml): 100%
MBIC measured as survival rate (PIA 9 S. aureus biofilm; 500 μg/ml): 90%
MBIC measured as survival rate (PIA 90 S. aureus biofilm; 5 μg/ml): 100%
MBIC measured as survival rate (PIA 90 S. aureus biofilm; 50 μg/ml): 80%
MBIC measured as survival rate (PIA 90 S. aureus biofilm; 500 μg/ml): 5%
MBIC measured as survival rate ([10]; 5 μg/ml): 100%
MBIC measured as survival rate ([10]; 50 μg/ml): 90%
MBIC measured as survival rate ([10]; 500 μg/ml): 10%
MBIC measured as survival rate ([11]; 5 μg/ml): 100%
MBIC measured as survival rate ([11]; 50 μg/ml): 70%
MBIC measured as survival rate ([11]; 500 μg/ml): 4%

CCCCCCNC(=O)[C@H](CCCNC(=N)N)NC(=O)[C@H](Cc1c(C(C)(C)C)[nH]c2c(C(C)(C)C)cc(C(C)(C)C)cc12)NC(=O)[C@@H](N)CCCNC(=N)N [Compound C]
suppression of metabolic activity (AB reduction) [12]: strong or complete suppression
MIC ([2]; TUH 08-16): 2 mg/L (≈ 2.6 µM)
MIC ([3]; PIA90): 2 mg/L (≈ 2.6 µM)
MIC ([4]; ATCC 35984): 4 mg/L (≈ 5.21 µM)
MIC [5]: 4 mg/L (≈ 5.21 µM)
MIC [6]: 4 mg/L (≈ 5.21 µM)
MIC ([7]; PIA 9): 4 mg/L (≈ 5.21 µM)
